Results: patent publication US20020137929A1, “1 - (3-heterocyclylphenyl) isothiourea, -isourea, -guanidine and -amidine herbicidal agents” (Intellectual Property Department, BASF Aktiengesellschaft, priority 1998, published 2002)

Tests used:
[1] = test system: ECHORC (Watergrass (Calif.)); assay: Postemergence weed control under flooded paddy conditions; format: in vivo, Echinochloa oryzoides; conditions: postemergence weeds, 3-4 weeks after treatment
In short: (§1)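 Containers holding 3–5 cm weeds and rice at 1.5–2.5 leaves are flooded to 1.5–3 cm above soil. Compound in 50/50 v/v aqueous/acetone is then added directly to the water, about 0.0313–0.500 kg/ha. Plants are kept in the greenhouse and rated 0–9 visually at 3–4 weeks.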

ZEAMX (Corn, Field) [2] = assay: Preemergence herbicidal evaluation; format: in vivo, Zea mays; conditions: rated 4-5 weeks after treatment
In short: (§2)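 Scores (0–9) reflect visual comparison with control plants for stand, vigor, malformation, size and chlorosis. Compound was applied to the soil after sowing, before emergence, as an aqueous acetone spray (about 0.0156–0.500 kg/ha), and cups were kept in a greenhouse for 4–5 weeks.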

CYPSE (Flatsedge) [3] = assay: Preemergence weed control under flooded paddy conditions; format: in vivo, Cyperus serotinus; conditions: rated 3-4 weeks after treatment
In short: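 Values are visual 0-9 scores against a control for a preemergence application into paddy flood water at about 0.0313 to 0.500 kg/ha. Greenhouse duration was three to four weeks.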

ZEAMX (Corn, Field) [4] = assay: Postemergence herbicidal evaluation; format: in vivo, Zea mays
In short: (§3)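 Compound is applied as a foliar spray to seedlings about two weeks old, formulated in equal parts acetone and water with 0.5% TWEEN 20 and delivered at 40 psi to give about 0.0156–0.500 kg per hectare. Injury is rated visually 0–9 after four to five weeks.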

ECHCG (Barnyardgrass) = assay: Preemergence herbicidal evaluation; format: in vivo, Echinochloa crus-galli; conditions: rated 4-5 weeks after treatment
In short: as §2

[5] = test system: TRZAWR (Wheat, Winter, cv Riband); assay: Preemergence herbicidal evaluation; format: in vivo, Triticum aestivum; conditions: rated 4-5 weeks after treatment
In short: as §2

[6] = test system: SAGPY (Arrowhead (Pygmaea)); assay: Postemergence weed control under flooded paddy conditions; format: in vivo, Sagittaria pygmaea; conditions: postemergence weeds, 3-4 weeks after treatment
In short: as §1

CYPIR (Rice Flatsedge) [7] = assay: Preemergence weed control under flooded paddy conditions; format: in vivo, Cyperus iria; conditions: rated 3-4 weeks after treatment
In short: (§4)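 Flooded-pot preemergence screen with silt loam and seeds in the upper 0.5 cm. Dose about 0.0313 to 0.500 kg/ha, delivered into flood water; visual 0-9 score after 3 to 4 weeks.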

CYPSE (Flatsedge) [8] = assay: Postemergence weed control under flooded paddy conditions; format: in vivo, Cyperus serotinus; conditions: postemergence weeds, 3-4 weeks after treatment
In short: as §1

CYPIR (Rice Flatsedge) [9] = assay: as above; format: in vivo, Cyperus iria; conditions: postemergence weeds, 3-4 weeks after treatment
In short: as §1

[10] = test system: ECHORC (Watergrass (Calif.)); assay: Preemergence weed control under flooded paddy conditions; format: in vivo, Echinochloa oryzoides; conditions: rated 3-4 weeks after treatment
In short: as §4

SETVI (Foxtail, Green) [11] = assay: Preemergence herbicidal evaluation; format: in vivo, Setaria viridis; conditions: rated 4-5 weeks after treatment
In short: as §2

ORYSAT (Rice, Tebonnet) = assay: Postemergence herbicidal evaluation; format: in vivo, Oryza sativa, (L.) Tebonnet
In short: as §3

SETVI (Foxtail, Green) [12] = assay: Postemergence herbicidal evaluation; format: in vivo, Setaria viridis
In short: as §3

With `CCOC(=O)CN1C(=O)CS(=O)(=O)C1=Nc1cc(-n2c(=O)cc(C(F)(F)F)n(C)c2=O)c(F)cc1Cl` [Compound 46, 2-{{2-Chloro-5-[3,6-dihydro-3-methyl-2,6-dioxo-4-(trifluoromethyl)-1(2H)-pyrimidinyl]-4-fluoro-phenyl}imino}-4-oxo-3-thiazolidineacetic acid, ethyl ester, 1,1-dioxide] the “Herbicidal rating ECHORC” value ([1]; rate 0.0313 kg/ha) was 0.0, the “Herbicidal rating ECHORC” value ([1]; rate 0.0625 kg/ha) was 0.0 and the “Herbicidal rating ECHORC” value ([1]; rate 0.1250 kg/ha) was 0.0. The “Herbicidal rating ECHORC” value ([1]; rate 0.2500 kg/ha) was 4.0, the “Preemergence herbicidal rating ZEAMX” value (ZEAMX (Corn, Field) [2]; rate 0.1250 kg/ha) was 0.0 and the “Preemergence herbicidal rating ZEAMX” value (ZEAMX (Corn, Field) [2]; rate 0.2500 kg/ha) was 1.0. The “Herbicidal rating CYPSE” value (CYPSE (Flatsedge) [3]; 0.0313 kg/ha) was 0.0, the “Herbicidal rating CYPSE” value (CYPSE (Flatsedge) [3]; 0.0625 kg/ha) was 0.0 and the “Herbicidal rating CYPSE” value (CYPSE (Flatsedge) [3]; 0.1250 kg/ha) was 0.0. The “Herbicidal rating CYPSE” value (CYPSE (Flatsedge) [3]; 0.2500 kg/ha) was 6.0, the “Postemergence herbicidal rating ZEAMX” value (ZEAMX (Corn, Field) [4]; Rate 0.0313 kg/ha) was 4.5 and the “Postemergence herbicidal rating ZEAMX” value (ZEAMX (Corn, Field) [4]; Rate 0.0625 kg/ha) was 5.0. The “Preemergence herbicidal rating ECHCG” value (ECHCG (Barnyardgrass); rate 0.1250 kg/ha) was 0.0, the “Preemergence herbicidal rating ECHCG” value (ECHCG (Barnyardgrass); rate 0.2500 kg/ha) was 0.0 and the “Preemergence herbicidal rating TRZAWR” value ([5]; rate 0.1250 kg/ha) was 0.0. The “Preemergence herbicidal rating TRZAWR” value ([5]; rate 0.2500 kg/ha) was 0.0, the “Herbicidal rating SAGPY” value ([6]; rate 0.0313 kg/ha) was 0.0 and the “Herbicidal rating SAGPY” value ([6]; rate 0.0625 kg/ha) was 0.0. The “Herbicidal rating SAGPY” value ([6]; rate 0.1250 kg/ha) was 0.0, the “Herbicidal rating SAGPY” value ([6]; rate 0.2500 kg/ha) was 3.0 and the “Herbicidal rating CYPIR” value (CYPIR (Rice Flatsedge) [7]; 0.0313 kg/ha) was 0.0. For the same compound, the “Herbicidal rating CYPIR” value (CYPIR (Rice Flatsedge) [7]; 0.0625 kg/ha) was 0.0, the “Herbicidal rating CYPIR” value (CYPIR (Rice Flatsedge) [7]; 0.1250 kg/ha) was 0.0 and the “Herbicidal rating CYPIR” value (CYPIR (Rice Flatsedge) [7]; 0.2500 kg/ha) was 0.0. For the same compound, the “Herbicidal rating CYPSE” value (CYPSE (Flatsedge) [8]; rate 0.0313 kg/ha) was 0.0, the “Herbicidal rating CYPSE” value (CYPSE (Flatsedge) [8]; rate 0.0625 kg/ha) was 0.0 and the “Herbicidal rating CYPSE” value (CYPSE (Flatsedge) [8]; rate 0.1250 kg/ha) was 0.0. The “Herbicidal rating CYPSE” value (CYPSE (Flatsedge) [8]; rate 0.2500 kg/ha) was 6.0, the “Herbicidal rating CYPIR” value (CYPIR (Rice Flatsedge) [9]; rate 0.0313 kg/ha) was 0.0 and the “Herbicidal rating CYPIR” value (CYPIR (Rice Flatsedge) [9]; rate 0.0625 kg/ha) was 0.0. For the same compound, the “Herbicidal rating CYPIR” value (CYPIR (Rice Flatsedge) [9]; rate 0.1250 kg/ha) was 0.0, the “Herbicidal rating CYPIR” value (CYPIR (Rice Flatsedge) [9]; rate 0.2500 kg/ha) was 0.0 and the “Herbicidal rating ECHORC” value ([10]; 0.0313 kg/ha) was 0.0. The “Herbicidal rating ECHORC” value ([10]; 0.0625 kg/ha) was 0.0, the “Herbicidal rating ECHORC” value ([10]; 0.1250 kg/ha) was 0.0 and the “Herbicidal rating ECHORC” value ([10]; 0.2500 kg/ha) was 4.0. For the same compound, the “Preemergence herbicidal rating SETVI” value (SETVI (Foxtail, Green) [11]; rate 0.1250 kg/ha) was 0.0, the “Preemergence herbicidal rating SETVI” value (SETVI (Foxtail, Green) [11]; rate 0.2500 kg/ha) was 0.0 and the “Postemergence herbicidal rating ORYSAT” value (ORYSAT (Rice, Tebonnet); Rate 0.0313 kg/ha) was 1.0. For the same compound, the “Postemergence herbicidal rating ORYSAT” value (ORYSAT (Rice, Tebonnet); Rate 0.0625 kg/ha) was 1.5, the “Postemergence herbicidal rating SETVI” value (SETVI (Foxtail, Green) [12]; Rate 0.0313 kg/ha) was 0.0 and the “Postemergence herbicidal rating SETVI” value (SETVI (Foxtail, Green) [12]; Rate 0.0625 kg/ha) was 0.0.
With `CCOC(=O)CN1C(=O)C(CCO)S/C1=N/c1cc(-n2c(=O)cc(C(F)(F)F)n(C)c2=O)c(F)cc1Cl` (stereo not drawn) [Compound 49, Ethyl 2-{{2-chloro-5-[3,6-dihydro-3-methyl-2,6-dioxo-4-(trifluoromethyl)-1(2H)-pyrimidinyl]-4-fluorophenyl}imino}-5-(hydroxyethyl)-4-oxo-3-thiazolidineacetate] the “Herbicidal rating ECHORC” value ([1]; rate 0.0313 kg/ha) was 0.0, the “Herbicidal rating ECHORC” value ([1]; rate 0.0625 kg/ha) was 2.0 and the “Herbicidal rating ECHORC” value ([1]; rate 0.1250 kg/ha) was 5.0. The “Herbicidal rating ECHORC” value ([1]; rate 0.2500 kg/ha) was 7.0, the “Preemergence herbicidal rating ZEAMX” value (ZEAMX (Corn, Field) [2]; rate 0.0156 kg/ha) was 0.0 and the “Preemergence herbicidal rating ZEAMX” value (ZEAMX (Corn, Field) [2]; rate 0.0313 kg/ha) was 0.0. For the same compound, the “Preemergence herbicidal rating ZEAMX” value (ZEAMX (Corn, Field) [2]; rate 0.0625 kg/ha) was 0.0, the “Preemergence herbicidal rating ZEAMX” value (ZEAMX (Corn, Field) [2]; rate 0.1250 kg/ha) was 3.0 and the “Preemergence herbicidal rating ZEAMX” value (ZEAMX (Corn, Field) [2]; rate 0.2500 kg/ha) was 3.0. The “Herbicidal rating CYPSE” value (CYPSE (Flatsedge) [3]; 0.0313 kg/ha) was 2.0, the “Herbicidal rating CYPSE” value (CYPSE (Flatsedge) [3]; 0.0625 kg/ha) was 3.0 and the “Herbicidal rating CYPSE” value (CYPSE (Flatsedge) [3]; 0.2500 kg/ha) was 4.0. For the same compound, the “Postemergence herbicidal rating ZEAMX” value (ZEAMX (Corn, Field) [4]; Rate 0.0313 kg/ha) was 5.5, the “Postemergence herbicidal rating ZEAMX” value (ZEAMX (Corn, Field) [4]; Rate 0.0625 kg/ha) was 6.0 and the “Postemergence herbicidal rating ZEAMX” value (ZEAMX (Corn, Field) [4]; rate 0.0156 kg/ha) was 5.0. The “Preemergence herbicidal rating ECHCG” value (ECHCG (Barnyardgrass); rate 0.0156 kg/ha) was 0.0, the “Preemergence herbicidal rating ECHCG” value (ECHCG (Barnyardgrass); rate 0.0313 kg/ha) was 0.0 and the “Preemergence herbicidal rating ECHCG” value (ECHCG (Barnyardgrass); rate 0.0625 kg/ha) was 0.0. The “Preemergence herbicidal rating ECHCG” value (ECHCG (Barnyardgrass); rate 0.1250 kg/ha) was 0.0, the “Preemergence herbicidal rating ECHCG” value (ECHCG (Barnyardgrass); rate 0.2500 kg/ha) was 3.0 and the “Preemergence herbicidal rating TRZAWR” value ([5]; rate 0.0156 kg/ha) was 0.0. The “Preemergence herbicidal rating TRZAWR” value ([5]; rate 0.0313 kg/ha) was 0.0, the “Preemergence herbicidal rating TRZAWR” value ([5]; rate 0.0625 kg/ha) was 0.0 and the “Preemergence herbicidal rating TRZAWR” value ([5]; rate 0.1250 kg/ha) was 0.0. The “Preemergence herbicidal rating TRZAWR” value ([5]; rate 0.2500 kg/ha) was 2.0, the “Herbicidal rating SAGPY” value ([6]; rate 0.0313 kg/ha) was 2.0 and the “Herbicidal rating SAGPY” value ([6]; rate 0.0625 kg/ha) was 4.0. The “Herbicidal rating SAGPY” value ([6]; rate 0.1250 kg/ha) was 6.0, the “Herbicidal rating SAGPY” value ([6]; rate 0.2500 kg/ha) was 7.0 and the “Herbicidal rating CYPIR” value (CYPIR (Rice Flatsedge) [7]; 0.0313 kg/ha) was 0.0. For the same compound, the “Herbicidal rating CYPIR” value (CYPIR (Rice Flatsedge) [7]; 0.0625 kg/ha) was 0.0, the “Herbicidal rating CYPIR” value (CYPIR (Rice Flatsedge) [7]; 0.1250 kg/ha) was 2.0 and the “Herbicidal rating CYPIR” value (CYPIR (Rice Flatsedge) [7]; 0.2500 kg/ha) was 7.0. The “Herbicidal rating CYPSE” value (CYPSE (Flatsedge) [8]; rate 0.0313 kg/ha) was 2.0, the “Herbicidal rating CYPSE” value (CYPSE (Flatsedge) [8]; rate 0.0625 kg/ha) was 3.0 and the “Herbicidal rating CYPSE” value (CYPSE (Flatsedge) [8]; rate 0.2500 kg/ha) was 4.0. The “Herbicidal rating CYPIR” value (CYPIR (Rice Flatsedge) [9]; rate 0.0313 kg/ha) was 0.0, the “Herbicidal rating CYPIR” value (CYPIR (Rice Flatsedge) [9]; rate 0.0625 kg/ha) was 0.0 and the “Herbicidal rating CYPIR” value (CYPIR (Rice Flatsedge) [9]; rate 0.1250 kg/ha) was 2.0. For the same compound, the “Herbicidal rating CYPIR” value (CYPIR (Rice Flatsedge) [9]; rate 0.2500 kg/ha) was 7.0, the “Herbicidal rating ECHORC” value ([10]; 0.0313 kg/ha) was 0.0 and the “Herbicidal rating ECHORC” value ([10]; 0.0625 kg/ha) was 2.0. For the same compound, the “Herbicidal rating ECHORC” value ([10]; 0.1250 kg/ha) was 5.0, the “Herbicidal rating ECHORC” value ([10]; 0.2500 kg/ha) was 7.0 and the “Preemergence herbicidal rating SETVI” value (SETVI (Foxtail, Green) [11]; rate 0.0156 kg/ha) was 0.0. For the same compound, the “Preemergence herbicidal rating SETVI” value (SETVI (Foxtail, Green) [11]; rate 0.0313 kg/ha) was 4.0, the “Preemergence herbicidal rating SETVI” value (SETVI (Foxtail, Green) [11]; rate 0.0625 kg/ha) was 5.0 and the “Preemergence herbicidal rating SETVI” value (SETVI (Foxtail, Green) [11]; rate 0.2500 kg/ha) was 5.0. For the same compound, the “Postemergence herbicidal rating ORYSAT” value (ORYSAT (Rice, Tebonnet); Rate 0.0313 kg/ha) was 2.5, the “Postemergence herbicidal rating ORYSAT” value (ORYSAT (Rice, Tebonnet); Rate 0.0625 kg/ha) was 3.0 and the “Postemergence herbicidal rating ORYSAT” value (ORYSAT (Rice, Tebonnet); rate 0.0156 kg/ha) was 1.0. The “Postemergence herbicidal rating SETVI” value (SETVI (Foxtail, Green) [12]; Rate 0.0313 kg/ha) was 4.0, the “Postemergence herbicidal rating SETVI” value (SETVI (Foxtail, Green) [12]; Rate 0.0625 kg/ha) was 7.0 and the “Postemergence herbicidal rating SETVI” value (SETVI (Foxtail, Green) [12]; rate 0.0156 kg/ha) was 3.0.
